Tests used:
Test in all cases: relative viability (nuclei count vs DMSO), 5 days (fraction); higher = more cells survive
[1] = compound: CC(C)N(CCCNC(=O)Nc1ccc(C(C)(C)C)cc1)C[C@H]1O[C@@H](n2ccc3c(N)ncnc32)[C@H](O)[C@@H]1O + CS(=O)(=O)N1CCN(Cc2cc3nc(-c4cccc5[nH]ncc45)nc(N4CCOCC4)c3s2)CC1 [Pictilisib] (partner 1 µM)
Summary of the method: (§1)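 The day after seeding in 1536-well plates, lung cancer cell lines were treated by pin tool with a single drug, or with a fixed anchor-drug dose together with five library-drug doses (not always all listed) in √10 steps. After 5 days, a combined fix-and-stain solution (final 0.05% Triton X-100, 1% formaldehyde, 1 ug/ml Hoechst) was added. Nuclei counted on 4× images gave relative viability as treated counts over vehicle counts, reported as the median of duplicate plates.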

[2] = compound: CC(C)N(CCCNC(=O)Nc1ccc(C(C)(C)C)cc1)C[C@H]1O[C@@H](n2ccc3c(N)ncnc32)[C@H](O)[C@@H]1O + CC(=O)Nc1cccc(-n2c(=O)n(C3CC3)c(=O)c3c(Nc4ccc(I)cc4F)n(C)c(=O)c(C)c32)c1 [Trametinib] (partner 0.02 µM)
Summary of the method: as §1

Shikonin + Palbociclib = compound: CC(C)=CC[C@@H](O)C1=CC(=O)c2c(O)ccc(O)c2C1=O [Shikonin] + CC(=O)c1c(C)c2cnc(Nc3ccc(N4CCNCC4)cn3)nc2n(C2CCCC2)c1=O [Palbociclib] (partner 0.5 µM)
Summary of the method: as §1

[3] = compound: CC(C)N(CCCNC(=O)Nc1ccc(C(C)(C)C)cc1)C[C@H]1O[C@@H](n2ccc3c(N)ncnc32)[C@H](O)[C@@H]1O + CC(=O)c1c(C)c2cnc(Nc3ccc(N4CCNCC4)cn3)nc2n(C2CCCC2)c1=O [Palbociclib] (partner 0.5 µM)
Summary of the method: as §1

NCI-H1355
relative viability ([1]; first compound 0.08 µM): 0.376 | relative viability ([1]; first compound 0.253 µM): 0.337 | relative viability ([1]; first compound 2.53 µM): 0.518 | relative viability ([1]; first compound 8 µM): 0.404 | relative viability ([2]; first compound 0.08 µM): 0.419 | relative viability ([2]; first compound 0.253 µM): 0.416 | relative viability ([2]; first compound 0.8 µM): 0.388 | relative viability ([2]; first compound 2.53 µM): 0.458 | relative viability ([2]; first compound 8 µM): 0.38 | relative viability (Shikonin + Palbociclib; first compound 0.01 µM): 0.421 | relative viability (Shikonin + Palbociclib; first compound 0.1 µM): 0.419 | relative viability (Shikonin + Palbociclib; first compound 0.3162 µM): 0.383 | relative viability (Shikonin + Palbociclib; first compound 1 µM): 0.398 | relative viability ([3]; first compound 0.08 µM): 0.379 | relative viability ([3]; first compound 0.253 µM): 0.427 | relative viability ([3]; first compound 0.8 µM): 0.363 | relative viability ([3]; first compound 2.53 µM): 0.386 | relative viability ([3]; first compound 8 µM): 0.392

NCI-H1395
relative viability ([1]; first compound 0.08 µM): 0.595 | relative viability ([1]; first compound 0.253 µM): 0.55 | relative viability ([1]; first compound 2.53 µM): 0.59 | relative viability ([1]; first compound 8 µM): 0.738 | relative viability ([2]; first compound 0.08 µM): 0.956 | relative viability ([2]; first compound 0.253 µM): 0.986 | relative viability ([2]; first compound 0.8 µM): 0.979 | relative viability ([2]; first compound 2.53 µM): 1.01 | relative viability ([2]; first compound 8 µM): 1.04 | relative viability (Shikonin + Palbociclib; first compound 0.01 µM): 0.524 | relative viability (Shikonin + Palbociclib; first compound 0.1 µM): 0.664 | relative viability (Shikonin + Palbociclib; first compound 0.3162 µM): 0.596 | relative viability (Shikonin + Palbociclib; first compound 1 µM): 0.628 | relative viability ([3]; first compound 0.08 µM): 0.587 | relative viability ([3]; first compound 0.253 µM): 0.59 | relative viability ([3]; first compound 0.8 µM): 0.651 | relative viability ([3]; first compound 2.53 µM): 0.626 | relative viability ([3]; first compound 8 µM): 0.625

NCI-H1437
relative viability ([1]; first compound 0.08 µM): 0.362 | relative viability ([1]; first compound 0.253 µM): 0.358 | relative viability ([1]; first compound 0.8 µM): 0.526 | relative viability ([1]; first compound 2.53 µM): 0.428 | relative viability ([1]; first compound 8 µM): 0.441 | relative viability ([2]; first compound 0.08 µM): 0.472 | relative viability ([2]; first compound 0.253 µM): 0.521 | relative viability ([2]; first compound 0.8 µM): 0.496 | relative viability ([2]; first compound 2.53 µM): 0.428 | relative viability ([2]; first compound 8 µM): 0.45 | relative viability (Shikonin + Palbociclib; first compound 0.01 µM): 0.328 | relative viability (Shikonin + Palbociclib; first compound 0.1 µM): 0.309 | relative viability (Shikonin + Palbociclib; first compound 0.3162 µM): 0.268 | relative viability (Shikonin + Palbociclib; first compound 1 µM): 0.303 | relative viability ([3]; first compound 0.08 µM): 0.299 | relative viability ([3]; first compound 0.253 µM): 0.289 | relative viability ([3]; first compound 0.8 µM): 0.288 | relative viability ([3]; first compound 2.53 µM): 0.275 | relative viability ([3]; first compound 8 µM): 0.307

NCI-H1650
relative viability ([1]; first compound 0.08 µM): 0.55 | relative viability ([1]; first compound 0.253 µM): 0.52 | relative viability ([1]; first compound 2.53 µM): 0.56 | relative viability ([1]; first compound 8 µM): 0.624 | relative viability ([2]; first compound 0.08 µM): 0.686 | relative viability ([2]; first compound 0.253 µM): 0.521 | relative viability ([2]; first compound 0.8 µM): 0.219 | relative viability ([2]; first compound 2.53 µM): 0.645 | relative viability ([2]; first compound 8 µM): 0.441 | relative viability (Shikonin + Palbociclib; first compound 0.01 µM): 0.395 | relative viability (Shikonin + Palbociclib; first compound 0.1 µM): 0.448 | relative viability (Shikonin + Palbociclib; first compound 0.3162 µM): 0.247 | relative viability (Shikonin + Palbociclib; first compound 1 µM): 0.319 | relative viability ([3]; first compound 0.08 µM): 0.38 | relative viability ([3]; first compound 0.253 µM): 0.431 | relative viability ([3]; first compound 0.8 µM): 0.131 | relative viability ([3]; first compound 2.53 µM): 0.335 | relative viability ([3]; first compound 8 µM): 0.396

NCI-H1651
relative viability ([1]; first compound 0.08 µM): 0.601 | relative viability ([1]; first compound 0.253 µM): 0.567 | relative viability ([1]; first compound 0.8 µM): 0.498 | relative viability ([1]; first compound 2.53 µM): 0.565 | relative viability ([1]; first compound 8 µM): 0.6 | relative viability ([2]; first compound 0.08 µM): 0.84 | relative viability ([2]; first compound 0.253 µM): 0.85 | relative viability ([2]; first compound 0.8 µM): 0.795 | relative viability ([2]; first compound 2.53 µM): 0.859 | relative viability ([2]; first compound 8 µM): 0.894 | relative viability (Shikonin + Palbociclib; first compound 0.01 µM): 0.553 | relative viability (Shikonin + Palbociclib; first compound 0.1 µM): 0.522 | relative viability (Shikonin + Palbociclib; first compound 0.3162 µM): 0.544 | relative viability (Shikonin + Palbociclib; first compound 1 µM): 0.523 | relative viability ([3]; first compound 0.08 µM): 0.497 | relative viability ([3]; first compound 0.253 µM): 0.485 | relative viability ([3]; first compound 0.8 µM): 0.49 | relative viability ([3]; first compound 2.53 µM): 0.515 | relative viability ([3]; first compound 8 µM): 0.518

NCI-H1666
relative viability ([1]; first compound 0.08 µM): 0.354 | relative viability ([1]; first compound 0.253 µM): 0.405 | relative viability ([1]; first compound 0.8 µM): 0.39 | relative viability ([1]; first compound 2.53 µM): 0.405 | relative viability ([1]; first compound 8 µM): 0.355 | relative viability ([2]; first compound 0.08 µM): 0.772 | relative viability ([2]; first compound 0.253 µM): 0.814 | relative viability ([2]; first compound 0.8 µM): 0.804 | relative viability ([2]; first compound 2.53 µM): 0.86 | relative viability ([2]; first compound 8 µM): 0.764 | relative viability (Shikonin + Palbociclib; first compound 0.01 µM): 0.648 | relative viability (Shikonin + Palbociclib; first compound 0.1 µM): 0.664 | relative viability (Shikonin + Palbociclib; first compound 0.3162 µM): 0.617 | relative viability (Shikonin + Palbociclib; first compound 1 µM): 0.599 | relative viability ([3]; first compound 0.08 µM): 0.64 | relative viability ([3]; first compound 0.253 µM): 0.634 | relative viability ([3]; first compound 0.8 µM): 0.659 | relative viability ([3]; first compound 2.53 µM): 0.65 | relative viability ([3]; first compound 8 µM): 0.656

NCI-H1734
relative viability ([1]; first compound 0.08 µM): 0.405 | relative viability ([1]; first compound 0.253 µM): 0.531 | relative viability ([1]; first compound 0.8 µM): 0.435 | relative viability ([1]; first compound 2.53 µM): 0.496 | relative viability ([1]; first compound 8 µM): 0.413 | relative viability ([2]; first compound 0.08 µM): 0.587 | relative viability ([2]; first compound 0.253 µM): 0.653 | relative viability ([2]; first compound 0.8 µM): 0.69 | relative viability ([2]; first compound 2.53 µM): 0.703 | relative viability ([2]; first compound 8 µM): 0.561 | relative viability (Shikonin + Palbociclib; first compound 0.01 µM): 0.319 | relative viability (Shikonin + Palbociclib; first compound 0.1 µM): 0.38 | relative viability (Shikonin + Palbociclib; first compound 0.3162 µM): 0.323 | relative viability (Shikonin + Palbociclib; first compound 1 µM): 0.308 | relative viability ([3]; first compound 0.08 µM): 0.328 | relative viability ([3]; first compound 0.253 µM): 0.385 | relative viability ([3]; first compound 0.8 µM): 0.353 | relative viability ([3]; first compound 2.53 µM): 0.192 | relative viability ([3]; first compound 8 µM): 0.365

NCI-H1755
relative viability ([1]; first compound 0.08 µM): 0.469 | relative viability ([1]; first compound 0.253 µM): 0.478 | relative viability ([1]; first compound 0.8 µM): 0.357 | relative viability ([1]; first compound 2.53 µM): 0.452 | relative viability ([1]; first compound 8 µM): 0.394 | relative viability ([2]; first compound 0.08 µM): 0.758 | relative viability ([2]; first compound 0.253 µM): 0.736 | relative viability ([2]; first compound 0.8 µM): 0.719 | relative viability ([2]; first compound 2.53 µM): 0.733 | relative viability ([2]; first compound 8 µM): 0.771 | relative viability (Shikonin + Palbociclib; first compound 0.01 µM): 0.463 | relative viability (Shikonin + Palbociclib; first compound 0.1 µM): 0.443 | relative viability (Shikonin + Palbociclib; first compound 0.3162 µM): 0.432 | relative viability (Shikonin + Palbociclib; first compound 1 µM): 0.482 | relative viability ([3]; first compound 0.08 µM): 0.437 | relative viability ([3]; first compound 0.253 µM): 0.435 | relative viability ([3]; first compound 0.8 µM): 0.45 | relative viability ([3]; first compound 2.53 µM): 0.484 | relative viability ([3]; first compound 8 µM): 0.498

NCI-H1792
relative viability ([1]; first compound 0.08 µM): 0.26 | relative viability ([1]; first compound 0.253 µM): 0.245 | relative viability ([1]; first compound 0.8 µM): 0.219 | relative viability ([1]; first compound 2.53 µM): 0.254 | relative viability ([1]; first compound 8 µM): 0.267 | relative viability ([2]; first compound 0.08 µM): 0.397 | relative viability ([2]; first compound 0.8 µM): 0.372 | relative viability ([2]; first compound 2.53 µM): 0.419 | relative viability ([2]; first compound 8 µM): 0.29 | relative viability (Shikonin + Palbociclib; first compound 0.01 µM): 0.717 | relative viability (Shikonin + Palbociclib; first compound 0.1 µM): 0.493 | relative viability (Shikonin + Palbociclib; first compound 0.3162 µM): 0.729 | relative viability (Shikonin + Palbociclib; first compound 1 µM): 0.7 | relative viability ([3]; first compound 0.08 µM): 0.631 | relative viability ([3]; first compound 0.253 µM): 0.671 | relative viability ([3]; first compound 0.8 µM): 0.773 | relative viability ([3]; first compound 2.53 µM): 0.639 | relative viability ([3]; first compound 8 µM): 0.643

— the supplement of paper PMC10307832
